# Experiments:
# PARP-1 [1] = biological target: T1, PARP-1 (Homo sapiens, UniProt P09874); assay: PARP-1 enzymatic activity in human PBMCs (PARP HT Universal Colorimetric Kit); format: cell-based; set-up: endogenous in cells; host or cells: human PBMCs / monocytes / dendritic cells / T and B cells from healthy controls and MS patients; settings: healthy controls, 1 ug/ml 15-HC
# Method: PARP-1 enzymatic activity (10A) and TNFalpha and CCL2 (10B) of PBMCs incubated with 15-HC alone, or in combination with AIQ, blocking antibodies to TLR2 or IC control.
# To investigate whether the TLR2/PARP-1 axis is functional in human we activated PBMCs from healthy controls with 15-HC, in the presence or not of PARP-1 or TLR2 inhibitors.
# PARP-1 [2] = assay: FACS PARP-1 activity in innate and adaptive immune cells treated with HSP60 or 15-HC; format: cell-based, human; settings: HSP60 1, 5, 10 ng/ml, 15-HC 1, 5, 10 ug/ml
# Excerpt: FIGS. 17A-C are bar graphs showing that 15-HC, but not HSP60, activates PARP-1 in cells of the innate immune system. Mean PARP-1 activity as determined by FACS in classical monocytes (17A), inflammatory monocytes (17B) and dendritic cells (17C) of healthy controls (HC) treated with activated with HSP60, 15-HC or left untreated. The data are shown as mean fluorescence intensity (MFI)±SD of 5 samples/group.
# FIGS. 18A-C are bar graphs showing that both 15-HC and HSP60 activate PARP-1 in cells of the adaptive immune system. Mean PARP-1 activity as determined by FACS in CD4+ T cells (18A), CD8+ T cells (18B) and B cells (18C) of healthy controls (HC) treated with activated with HSP60, 15-HC or left untreated. The data are shown as mean fluorescence intensity (MFI)±SD of 5 samples/group.
# A new FACS-based method was developed to detect PARP-1 activation based on the intracellular detection of the PARP-1 product PAR with specific antibodies. Briefly, the cells were incubated with antibodies to CD16/32 to block unspecific antibody binding, and then stained for surface markers. […] The samples were then analyzed by FACS.
# To investigate whether the increased activity of the TLR2/PARP-1 axis in SPMS patients resulted from increased levels of TLR2 ligands, the levels of 15-HC and HSP60 were measured in serum samples from healthy controls, RRMS and SPMS patients. […]
# Erk / PARP-1 interaction = assay: Co-immunoprecipitation of ERK and PARP-1; format: cell-based, mouse; settings: microglia and macrophages activated with 15-HC
# Method: 5A, a bar graph showing the time course of microglial PARP-1 activation by 15-oxysterols or 7-KC. PARP-1 activity is shown as Mean±SEM. 5B, a set of eight bar graphs showing signaling pathways activated by 15-HC. Microglial cells were stimulated with 15-HC and lysed at 1, 5, and 15 minutes. Signal transduction arrays were made with the lysates and probed with phospho-specific antibodies. 15a-HC increases the phosphorylation of TAK1 (top right), IRAK (top left), Akt (second row, left), p38 MAPK (second row, right), Pyk2 (third row, left), PKC (third row, right), PI3K (bottom row, left), and Erk1/2 (bottom row, right). (Mean±SEM) 5C, a bar graph showing activation of microglial PARP-1 by 15-HC in the presence of kinase inhibitors (Mean±SEM). 5D, an immunoblot and a bar graph showing the results of co-immunoprecipitaiton of ERK and PARP-1. Microglial cells were treated with 15-HC, lysed, immunoprecipitated with antibodies to phosphorylated Erk and then the pulled down material was probed with antibodies to PARP-1.
# Thus, co-immunoprecipitation studies were carried out to better characterize the mechanisms by which 15-HC activates PARP-1. Microglia and macrophages were activated with 15-HC, ERK-specific antibodies were used for immunoprecipitation, and the pulled down material was probed with antibodies to PARP-1.
# PARP-1 [3] = biological target: T1, PARP-1; assay: FACS-based detection of PARP-1 activity (PAR staining) in human monocytes / PBMCs; format: cell-based; set-up: endogenous in cells; host or cells: human PBMCs / monocytes / dendritic cells / T and B cells from healthy controls and MS patients
# Method: FIGS. 11A-B are show the results of FACS-based detection of PARP-1 activity. 11A. a set of five histograms showing PAR staining (as detected by FACS) of PBMCs incubated with 15-HC alone, or in combination with AIQ, blocking antibodies to TLR2 (TLR2 BL), or IC control (TLR2 IC). 11B, a line graph showing the correlation of PAR staining as detected by FACS with PARP-1 enzymatic activity detected on PBMCs activated with different concentration of 15-HC.
# 14A is a set of fifteen histograms showing PAR staining of PBMCs taken from HC (left column), RRMS (center column) or SPMS (right column) patients and unstimulated (top row) or activated with 15-HC alone (second row), or in combination with AIQ (third row), blocking antibodies to TLR2 (fourth row) or IC control (bottom row). 14B is a bar graph showing the mean fluorescence intensity (MFI)±SD of 5 samples/group from the histograms in 14A.
# 15A is a set of 24 histograms showing PAR staining of PBMCs taken from HC (left column), RRMS (center column) or SPMS (right column) patients and unstimulated (top row) or activated with pgLPS (second row), polyIC (third row), ecLPS (fourth row), flagellin (row 5), imiquimod (row 6), ssRNA (row 7) or CpG (row 8). 15B is a bar graph showing the mean fluorescence intensity (MFI)±SD of 5 samples/group from the histograms in […].
# A new FACS-based method was developed to detect PARP-1 activation based on the intracellular detection of the PARP-1 product PAR with specific antibodies. Briefly, the cells were incubated with antibodies to CD16/32 to block unspecific antibody binding, and then stained for surface markers. After washing, the cells were permeabilized with Fix/Perm (BD), and then stained with rabbit anti-PAR antibodies (or control rabbit IgG) for 30′ at 4° C., followed by anti-rabbit PE for 30′ at room temperature. The samples were then analyzed by FACS.
# T1 sequence (P09874 whole entry): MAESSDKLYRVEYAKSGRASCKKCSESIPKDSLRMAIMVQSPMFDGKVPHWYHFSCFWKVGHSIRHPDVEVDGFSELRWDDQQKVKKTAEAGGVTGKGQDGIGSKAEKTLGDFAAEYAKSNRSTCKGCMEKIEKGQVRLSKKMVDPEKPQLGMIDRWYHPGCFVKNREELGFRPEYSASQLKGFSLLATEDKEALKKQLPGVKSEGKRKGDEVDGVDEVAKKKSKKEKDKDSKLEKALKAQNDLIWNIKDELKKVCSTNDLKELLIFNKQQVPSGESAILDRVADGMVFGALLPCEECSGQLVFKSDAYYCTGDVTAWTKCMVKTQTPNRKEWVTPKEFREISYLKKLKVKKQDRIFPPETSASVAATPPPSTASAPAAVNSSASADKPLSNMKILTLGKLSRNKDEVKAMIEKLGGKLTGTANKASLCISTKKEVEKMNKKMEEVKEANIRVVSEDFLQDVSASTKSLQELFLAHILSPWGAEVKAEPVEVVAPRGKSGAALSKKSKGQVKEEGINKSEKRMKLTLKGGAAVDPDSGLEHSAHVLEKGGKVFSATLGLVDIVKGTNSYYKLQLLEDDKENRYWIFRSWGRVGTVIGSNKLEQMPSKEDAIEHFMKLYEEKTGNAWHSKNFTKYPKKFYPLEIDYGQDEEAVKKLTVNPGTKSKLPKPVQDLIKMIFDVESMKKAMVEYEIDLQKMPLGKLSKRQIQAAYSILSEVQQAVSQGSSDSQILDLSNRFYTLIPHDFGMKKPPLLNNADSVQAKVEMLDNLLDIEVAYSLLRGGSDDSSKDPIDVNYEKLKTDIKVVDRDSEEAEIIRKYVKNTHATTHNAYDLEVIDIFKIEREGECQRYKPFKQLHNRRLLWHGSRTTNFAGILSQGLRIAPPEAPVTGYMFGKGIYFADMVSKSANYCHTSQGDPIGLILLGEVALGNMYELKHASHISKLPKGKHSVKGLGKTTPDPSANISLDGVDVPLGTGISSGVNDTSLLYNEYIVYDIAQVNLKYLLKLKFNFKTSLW
substance,measurement,setting,value
15-hydroxycholestene [15-HC],PARP-1 enzymatic activity in human PBMCs,PARP-1 [1],results in the activation
same,PARP-1 activation in cells of the adaptive immune system (FIG. 18),"PARP-1 [2]; CD4+ T cells, CD8+ T cells, B cells of healthy controls",could activate
same,PARP-1 activation in cells of the innate immune system (FIG. 17),"PARP-1 [2]; classical monocytes, inflammatory monocytes, dendritic cells of healthy controls",only 15-HC could activate
same,interaction of Erk with PARP-1,Erk / PARP-1 interaction,significant interaction
same,"inhibition of 15-HC-induced PARP-1 activation in monocytes from healthy controls, RRMS and SPMS patients",PARP-1 [3]; all three experimental groups,could be inhibited
same,PAR staining (FACS),PARP-1 [3]; human monocytes activated by 15-HC,significant increase

# Source: patent US20140343095A1, “Methods of Diagnosing and Treating Multiple Sclerosis” (The Brigham and Women's Hospital, Inc., priority 2009, published 2014)
